Experiment [1] has as its system PAF-Induced Bronchoconstriction. In words: PAF Induced Bronchoconstriction Assay. Type of experiment: in vivo, guinea pig. The note with it: for inhibition in vivo at 50 mg/kg: Cavia porcellus, po, 2-hour pretreatment, read-out: Percent Inhib. of PAF-Induced Bronchoconstriction, 50 mg/Kg p.o.; for Percent Inhib. of PAF-Induced Bronchoconstriction, mg/Kg i.v.: i.v. (dose not given), 1 minute pretreatment, PAF 1.0 μg/kg i.v. In outline: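 Male Hartley guinea pigs, urethane-anesthetized (2 g/kg i.p.), ventilated, with succinylcholine 1.2 mg/kg i.v. and propranolol 0.1 mg/kg i.v. pretreatment. Compound given i.v. 1 min or by oral gavage 2 h before i.v. PAF challenge at 1.0 μg/kg. Peak tracheal pressure rise over baseline compared with control mean gives % inhibition.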

The subject of experiment [2] is PAF-Induced Platelet Count Decrease. In words: PAF Induced Platelet Count Decrease. The class given is in vivo, guinea pig. The settings on record: for inhibition in vivo at 3 mg/kg: Cavia porcellus, Platelet, 3 mg/Kg (route not given), read-out: Percent Inhib. of PAF-Induced Platelet Count Decrease, 3 mg/Kg. The method, then:
PAF Induced Platelet Count Decrease
Male Hartley guinea pigs weighing between 500 and 900 grams were fed standard guinea pig chow and tap water ad libitum. PAF was solubilized in ethanol and stored as a 2 mM stock solution at -70° C. The stock solutuion of PAF was diluted to 1 pM in Tris buffer pH 7.4 and 0.1% BSA for all experiments.
(a) Intravenous Procedure
Guinea pigs were anesthetized with urethane (1.6 g/kg, i.p.). A catheter (PE50) was introduced into the right carotid artery for withdrawing blood. A second catheter PE10) was introduced into the jugular vein for injecting drugs and for administering the PAF challenge (75 ng/kg, i.v.). A control blood sample was obtained and platelets were counted in a whole blood platelet analyzer. PAF was then given and blood samples were taken 15, 30, and 60 seconds after the challenge for platelet counts. Fifteen minutes later, selected concentrations of the test compound were solubilized in DMSO and injected intravenously into a group of 4-6 animals. Only one concentration of antagonist was used in each animal group. Fifteen minutes after drug injection, blood smaples were taken before and 15, 30, and 60 sec after the PAF challenge, and analyzed for platelet number.
Animals were anesthetized with sodium pentobarbital (35 mg/kg. i.p.) and the caritoid artery and jugular vein were cannulated as described above. The cannulae were exteriorized at the base of the neck and the animals were allowed to recover. At least 18 hours after surgery, conscious unrestrained guinea pigs were used in the experiment. The animals were challenged two time with PAF (120 ng/kg. i.v.); the first to establish a consistent response to PAF and the second to serve as a control for the PAF challenge. Blood samples were taken before and 15, 30, and 45 seconds after PAF challenge and platelets were counted. Thirty minutes after the control PAF challenge, the animal were orally dosed with either gum acacia or the test compound. Animals were then challenged with PAF at 1, 3, 5, and 24 hours after the administration of the drug.
Data Analysis and Statistics
The % change, i.e., the difference in platelet number before and after PAF challenge was calculated by: [formula]
Statistical significance (p<0.05) of the difference between the mean PAF control and mean drug treated activity was determined with paried Students's t-test.

Experiment [3] concerns the target T1, PAF Binding, dog platelets (Canis lupus familiaris, UniProt A0A8I3NSH0).
T1 construct: Washed platelets were prepared by resuspending the platelet pellet once with PBS containing 1 mM EDTA; from tissue; host or cells: washed platelets from dog blood
T1 sequence (A0A8I3NSH0 1-343): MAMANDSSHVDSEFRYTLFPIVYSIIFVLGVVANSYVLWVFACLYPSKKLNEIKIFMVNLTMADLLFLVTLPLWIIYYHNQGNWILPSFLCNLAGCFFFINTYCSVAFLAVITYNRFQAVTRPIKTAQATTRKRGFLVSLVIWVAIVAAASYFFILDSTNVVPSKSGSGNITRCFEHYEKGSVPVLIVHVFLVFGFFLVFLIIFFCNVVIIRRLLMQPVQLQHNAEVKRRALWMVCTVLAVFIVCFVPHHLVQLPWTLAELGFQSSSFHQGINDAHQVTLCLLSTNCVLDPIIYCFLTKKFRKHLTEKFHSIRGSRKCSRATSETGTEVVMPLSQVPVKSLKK
In words: PAF Binding Assay (inhibition of 3H-PAF binding to washed dog platelets). The note with it: dog platelets, 3H-PAF, 10 minutes at room temperature; read-out: Inhib of PAF Binding IC50. In outline: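 Washed dog platelets (2×10^7 per tube, in 0.1% BSA-PBS) incubated 10 min at room temperature with 3H-PAF and test analogs. Bound ligand separated by 1 min centrifugation through silicone oil; platelet pellet radioactivity counted by liquid scintillation.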

For the molecule `O=C(/C=C/C=C(c1cccc(Cl)c1)c1cccc(Cl)c1)NCCCCc1cccnc1` [(E)-5,5-bis(3-chlorophenyl)-N-[4-(3-pyridinyl)butyl]-2,4-pentadienamide], the inhibition in vivo at 50 mg/kg in experiment [1] (50 mg/Kg p.o.) amounted to 35 ± 7%. Also, in experiment [1], the “Percent Inhib. of PAF-Induced Bronchoconstriction, mg/Kg i.v.” value is on record as 76 ± 14%. For the same molecule, the inhibition in vivo at 3 mg/kg in experiment [2] worked out at 21%.
The like results for `C[C@H](CCCc1cccnc1)NC(=O)/C=C/C=C(c1ccc(F)cc1)c1ccc(F)cc1` [[R-(E)]-5,5-bis (4-fluorophenyl)-N-[1-methyl-4-(3-pyridinyl)butyl]-2,4-pentadienamide] were, in that order, 53 ± 11%, 70 ± 9% and 11%.
As to `C[C@H](CCCc1cccnc1)NC(=O)/C=C/C=C(c1cccc(F)c1)c1cccc(F)c1` [[R-(E)]-5,5-bis(3-fluorophenyl)-N-[1-methyl-4-(3-pyridinyl)butyl]-2,4-pentadienamide], in experiment [1] (50 mg/Kg p.o.), the inhibition in vivo at 50 mg/kg was 91 ± 5%. Also, the “Percent Inhib. of PAF-Induced Bronchoconstriction, mg/Kg i.v.” value in experiment [1] stood at 73 ± 6%. In addition, the inhibition in vivo at 3 mg/kg in experiment [2] was 17%.
Regarding `COc1ccc(C(=C/C=C/C(=O)N[C@H](C)CCCc2cccnc2)c2ccc(OC)cc2)cc1` [[R-(E)]-5,5-bis(4-methoxyphenyl)-N-[1-methyl-4-(3-pyridinyl)butyl]-2,4-pentadienamide], the inhibition in vivo at 50 mg/kg in experiment [1] (50 mg/Kg p.o.) turned out to be 97 ± 2%. The “Percent Inhib. of PAF-Induced Bronchoconstriction, mg/Kg i.v.” value in experiment [1] is given as 87 ± 4%. The “Percent Inhib. of PAF-Induced Platelet Count Decrease, 30 mg/Kg p.o.” value in experiment [2] (30 mg/Kg p.o.) came to 81%. Moreover, the inhibition in vivo at 3 mg/kg in experiment [2] came out at 85%.
In the case of `CCCCC/C(=C\C=C\C(=O)N[C@H](C)CCCc1cccnc1)c1ccc(OC)c(OC)c1` [[R-(E,E)]-5-(3,4-dimethoxyphenyl)-N-[1-methyl-4-(3-pyridinyl)butyl]-2,4-decadienamide], the 50% inhibitory concentration (IC50) in experiment [3] was found to be 6 nM. In experiment [1], the “Percent Inhib. of PAF-Induced Bronchoconstriction, mg/Kg i.v.” value is 99 ± 0.4%.
In the case of `CCCCC/C(=C\C=C\C(=O)N[C@H](C)CCCc1cccnc1)c1cccc(F)c1` [[R-(E,E)]-5-(3-fluorophenyl)-N-[1-methyl-4-(3-pyridinyl)butyl]-2,4-decadienamide], the IC50 in experiment [3] is 30 nM. In addition, the “Percent Inhib. of PAF-Induced Bronchoconstriction, mg/Kg i.v.” value in experiment [1] was 93 ± 0.9%.
The like results for `CCCC/C(=C\C=C\C(=O)N[C@H](C)CCCc1cccnc1)c1cccc(OC)c1` [[R-(E,E)]-5-(3-methoxyphenyl)-N-[1-methyl-4-(3-pyridinyl)butyl]-2,4-nonadienamide] were, in that order, 15 nM and 91 ± 5%.
For the molecule `CCCCC/C(=C\C=C\C(=O)N[C@H](C)CCCc1cccnc1)c1ccc(F)cc1` [[R-(E,E)]-5-(4-fluorophenyl)-N-[1-methyl-4-(3-pyridinyl)butyl]-2,4-decadienamide], the IC50 in experiment [3] was determined as 40 nM. In experiment [1], the “Percent Inhib. of PAF-Induced Bronchoconstriction, mg/Kg i.v.” value is given as 95 ± 1%.
In the case of `COc1ccc(/C(=C/C=C/C(=O)N[C@H](C)CCCc2cccnc2)C(C)C)cc1` [[R-(E,E)]-5-(4-methoxyphenyl)-6-methyl-N-[1-methyl-4-(3-pyridinyl)butyl]-2,4-heptadienamide], the concentration for half-maximal inhibition (IC50) in experiment [3] turned out to be 30 nM. In addition, the “Percent Inhib. of PAF-Induced Bronchoconstriction, mg/Kg i.v.” value in experiment [1] came to 38 ± 11%.
Regarding `CCCCCCCCCCCC/C(=C\C=C\C(=O)N[C@H](C)CCCc1cccnc1)c1ccc(OC)cc1` [[R-(E,E)]-5-(4-methoxyphenyl)-N-[1-methyl-4-(3-pyridinyl)butyl]-2,4-heptadecadienamide], the IC50 in experiment [3] turned out to be 45 nM. Also, the “Percent Inhib. of PAF-Induced Bronchoconstriction, mg/Kg i.v.” value in experiment [1] is reported as 28 ± 2%.
As to `CC/C(=C\C=C\C(=O)N[C@H](C)CCCc1cccnc1)c1ccc(OC)cc1` [[R-(E,E)]-5-(4-methoxyphenyl)-N-[1-methyl-4-(3-pyridinyl)butyl]-2,4-heptadienamide], the IC50 in experiment [3] came to 30 nM. In experiment [1] (50 mg/Kg p.o.), the inhibition in vivo at 50 mg/kg amounted to 84 ± 2%. Also, in experiment [1], the “Percent Inhib. of PAF-Induced Bronchoconstriction, mg/Kg i.v.” value is 72 ± 13%.
Consider `COc1ccc(/C(C)=C/C=C/C(=O)N[C@H](C)CCCc2cccnc2)cc1` [[R-(E,E)]-5-(4-methoxyphenyl)-N-[1-methyl-4-(3-pyridinyl)butyl]-2,4-hexadienamide], for which, in experiment [3], the IC50 came to 25 nM. Besides, in experiment [1], the “Percent Inhib. of PAF-Induced Bronchoconstriction, mg/Kg i.v.” value is reported as 42 ± 16%.
As to `CCCC/C(=C\C=C\C(=O)N[C@H](C)CCCc1cccnc1)c1ccc(OC)cc1` [[R-(E,E)]-5-(4-methoxyphenyl)-N-[1-methyl-4-(3-pyridinyl)butyl]-2,4-nonadienamide], the IC50 in experiment [3] was found to be 14 nM. Further, the inhibition in vivo at 50 mg/kg in experiment [1] (50 mg/Kg p.o.) was found to be 98 ± 1%. Also, in experiment [1], the “Percent Inhib. of PAF-Induced Bronchoconstriction, mg/Kg i.v.” value was 99 ± 1%.
The like results for `CCC/C(=C\C=C\C(=O)N[C@H](C)CCCc1cccnc1)c1ccc(OC)cc1` [[R-(E,E)]-5-(4-methoxyphenyl)-N-[1-methyl-4-(3-pyridinyl)butyl]-2,4-octadienamide] were, in that order, 50 nM, 9 ± 13% and 86 ± 7%.
`COc1ccc(/C=C/C=C/C(=O)N[C@H](C)CCCc2cccnc2)cc1` [[R-(E,E)]-5-(4-methoxyphenyl)-N-[1-methyl-4-(3-pyridinyl)butyl]-2,4-pentadienamide]: in experiment [3], the 50% inhibitory concentration (IC50) was determined as 30 nM. For the same molecule, in experiment [1], the “Percent Inhib. of PAF-Induced Bronchoconstriction, mg/Kg i.v.” value was found to be 17 ± 13%.
Take `CCCCCCCC/C(=C\C=C\C(=O)N[C@H](C)CCCc1cccnc1)c1ccc(OC)cc1` [[R-(E,E)]-5-(4-methoxyphenyl)-N-[1-methyl-4-(3-pyridinyl)butyl]-2,4-tridecadienamide]: in experiment [3], the concentration for half-maximal inhibition (IC50) was 5 nM. The inhibition in vivo at 50 mg/kg in experiment [1] (50 mg/Kg p.o.) stood at 84 ± 8%. Besides, in experiment [1], the “Percent Inhib. of PAF-Induced Bronchoconstriction, mg/Kg i.v.” value was 98 ± 1%.
The like results for `CCCCCC/C(=C\C=C\C(=O)N[C@H](C)CCCc1cccnc1)c1ccc(OC)cc1` [[R-(E,E)]-5-(4-methoxyphenyl)-N-[1-methyl-4-(3-pyridinyl)butyl]-2,4-undecadienamide] were, in that order, 9 nM, 96 ± 1% and 100 ± 1%.
As to `COc1ccc(/C(=C/C=C/C(=O)N[C@H](C)CCCc2cccnc2)C2CCCCC2)cc1` [[R-(E,E)]-5-cyclohexyl-5-(4-methoxyphenyl)-N-[1-methyl-4-(3-pyridinyl)butyl]-2,4-pentadienamide], the IC50 in experiment [3] turned out to be 20 nM. In addition, the “Percent Inhib. of PAF-Induced Bronchoconstriction, 50 mg/Kg p.o. (6 hr)” value in experiment [1] (50 mg/Kg p.o., (6 hr)) is on record as 12 ± 10%. In addition, the inhibition in vivo at 50 mg/kg in experiment [1] (50 mg/Kg p.o.) came out at 97 ± 1%. The “Percent Inhib. of PAF-Induced Bronchoconstriction, mg/Kg i.v.” value in experiment [1] was determined as 73 ± 17%.
On to `COc1ccc(/C(=C/C=C/C(=O)N[C@H](C)CCCc2cccnc2)C2CC2)cc1` [[R-(E,E)]-5-cyclopropyl-5-(4-methoxyphenyl)-N-[1-methyl-4-(3-pyridinyl)butyl]-2,4-pentadienamide], for which the IC50 in experiment [3] is 50 nM. Also, in experiment [1], the “Percent Inhib. of PAF-Induced Bronchoconstriction, mg/Kg i.v.” value stood at 35 ± 5%.
On to `CC[C@@H](CCCc1cccnc1)NC(=O)/C=C/C=C(c1ccc(OC)cc1)c1ccc(OC)cc1` [[S-(E)]-N-[1-ethyl-4-(3-pyridinyl)butyl]-5,5-bis (4-methoxyphenyl)-2,4-pentadienamide], for which the IC50 in experiment [3] was 400 nM. Further, the “Percent Inhib. of PAF-Induced Bronchoconstriction, mg/Kg i.v.” value in experiment [1] stood at 44 ± 8%.
On to `CCCCC/C(=C\C=C\C(=O)N[C@@H](C)CCCc1cccnc1)c1ccc(OC)cc1` [[S-(E,E)]-5-(4-methoxyphenyl)-N-[1-methyl-4-(3-pyridinyl)butyl]-2,4-decadienamide], for which the 50% inhibitory concentration (IC50) in experiment [3] amounted to 120 nM. In addition, the inhibition in vivo at 50 mg/kg in experiment [1] (50 mg/Kg p.o.) was found to be 25 ± 13%. For the same molecule, in experiment [1], the “Percent Inhib. of PAF-Induced Bronchoconstriction, mg/Kg i.v.” value turned out to be 46 ± 16%.

These data come from patent US4788206A, “Pentadieneamides” (Hoffmann-La Roche Inc., priority 1987, dated 1988).
